In one assay the target is T1, STAT5a Trp566Arg (Homo sapiens, UniProt P42229, W566R).
T1 construct: His; made in house
T1 sequence (P42229 1-794 W566R): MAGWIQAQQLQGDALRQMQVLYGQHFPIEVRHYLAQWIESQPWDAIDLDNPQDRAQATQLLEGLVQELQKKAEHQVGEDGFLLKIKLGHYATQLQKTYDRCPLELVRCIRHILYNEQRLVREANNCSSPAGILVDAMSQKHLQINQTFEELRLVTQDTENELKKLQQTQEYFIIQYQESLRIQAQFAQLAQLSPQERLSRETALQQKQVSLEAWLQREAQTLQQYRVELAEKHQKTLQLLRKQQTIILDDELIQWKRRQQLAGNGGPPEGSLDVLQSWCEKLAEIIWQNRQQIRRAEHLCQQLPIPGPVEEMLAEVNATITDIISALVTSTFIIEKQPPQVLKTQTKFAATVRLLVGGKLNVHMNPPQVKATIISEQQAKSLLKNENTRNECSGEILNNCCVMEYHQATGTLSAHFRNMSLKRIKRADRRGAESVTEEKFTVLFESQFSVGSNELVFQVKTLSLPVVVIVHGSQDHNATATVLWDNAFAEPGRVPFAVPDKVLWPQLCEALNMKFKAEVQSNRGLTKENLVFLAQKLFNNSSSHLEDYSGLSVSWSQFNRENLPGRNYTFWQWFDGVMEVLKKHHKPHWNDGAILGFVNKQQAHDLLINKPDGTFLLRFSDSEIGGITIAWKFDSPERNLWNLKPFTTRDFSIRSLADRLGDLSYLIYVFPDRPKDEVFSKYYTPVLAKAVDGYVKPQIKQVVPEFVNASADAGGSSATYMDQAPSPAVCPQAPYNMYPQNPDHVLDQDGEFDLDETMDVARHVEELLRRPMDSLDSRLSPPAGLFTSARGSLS
The experiment in a line: FP-based competitive binding assay, STAT5a Trp566Arg. As to the method: (§1) Fluorescence polarization assays
(§2) The ability of test compounds to displace 5-carboxyfluorescein-GY(PO3H2)LVLDKW (final concentration: 10 nM) from the SH2 domain of STAT5a/b proteins was analyzed. Proteins […]
(§3) was applied in dilution series comprising the following concentrations: 0.024 – 200 µM […]
(§4) and 0.146 – 600 µM (STAT5b Arg566Glu), respectively. The assays were performed in buffer containing 10 mM Tris, 50 mM NaCl, 1 mM DTT, 1 mM EDTA and 0.1% (v/v) NP-40. Fosfosal was dissolved in DMSO. STAT5a/b proteins and fosfosal were incubated at room temperature for 1 h before adding peptide. Samples were transferred to 384-well microtiter plates and fluorescence polarization was read after a further 1 h incubation time. All measurements were performed in triplicate (n=3), except for STAT5b (n=6) and STAT5a Trp566Arg (n=4). Percent binding was calculated based on a logarithmic curve fit using OriginPro 8G software. IC50 values were converted to Ki values using the published equation.[4] […]
(§5) [4] Z. Nikolovska-Coleska, R. Wang, X. Fang, H. Pan, Y. Tomita, P. Li, P. P. Roller, K.
(§6) Krajewski, N. G. Saito, J. A. Stuckey, S. Wang, Anal. Biochem. 2004, 332, 261-273.

A further assay deals with T2, STAT5b Arg566Ala (Homo sapiens, UniProt P51692, R566A).
T2 construct: His; made in house
T2 sequence (P51692 1-787 R566A): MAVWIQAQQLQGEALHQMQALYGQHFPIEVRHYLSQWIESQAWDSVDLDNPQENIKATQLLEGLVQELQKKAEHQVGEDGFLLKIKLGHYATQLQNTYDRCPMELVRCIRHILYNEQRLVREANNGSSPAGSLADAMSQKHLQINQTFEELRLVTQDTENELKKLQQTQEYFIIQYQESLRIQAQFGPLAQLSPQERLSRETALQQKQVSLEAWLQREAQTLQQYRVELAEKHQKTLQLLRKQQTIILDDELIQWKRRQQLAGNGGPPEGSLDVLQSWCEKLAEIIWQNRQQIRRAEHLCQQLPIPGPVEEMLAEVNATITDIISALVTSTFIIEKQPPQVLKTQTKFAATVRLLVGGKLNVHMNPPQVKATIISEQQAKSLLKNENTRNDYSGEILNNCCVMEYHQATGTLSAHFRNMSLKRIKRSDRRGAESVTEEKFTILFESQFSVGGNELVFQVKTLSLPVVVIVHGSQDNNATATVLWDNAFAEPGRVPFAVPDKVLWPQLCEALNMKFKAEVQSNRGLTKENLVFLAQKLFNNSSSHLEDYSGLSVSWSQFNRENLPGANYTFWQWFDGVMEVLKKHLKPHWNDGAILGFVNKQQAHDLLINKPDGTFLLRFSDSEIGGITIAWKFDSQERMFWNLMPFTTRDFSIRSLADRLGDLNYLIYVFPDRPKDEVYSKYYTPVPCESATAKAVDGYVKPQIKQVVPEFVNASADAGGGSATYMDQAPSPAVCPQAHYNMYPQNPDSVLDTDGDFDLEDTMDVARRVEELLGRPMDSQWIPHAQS
The experiment in a line: FP-based competitive binding assay, STAT5b Arg566Ala. As to the method:
as §1, §2, §3, §4, §5, §6

Assay [1] has as its target T3, STAT5b-7M (Arg566Trp/Gln636Pro/Met639Asn/Phe640Leu/Met644Lys/Asn664Ser/Tyr679Phe) (Homo sapiens, UniProt P51692, F640L/M639N/M644K/N664S/Q636P/R566W/Y679F).
T3 construct: His; made in house
T3 sequence (P51692 1-787 R566W/Q636P/M639N/F640L/M644K/N664S/Y679F): T2 sequence (P51692 1-787 R566A) with A566W, Q636P, M639N, F640L, M644K, N664S, Y679F
The experiment in a line: FP-based competitive binding assay, STAT5b-7M. As for the experimental part:
as §1, §2, §3, §4, §5, §6

Substitutions are numbered along the chain they refer to.

As usually defined, the Kd is the equilibrium constant for the complex coming apart. A high value points to lower affinity. What is called IC50 is the concentration that gives 50% inhibition. Read a low IC50 as higher potency. For orientation: Ki means the equilibrium dissociation constant of an inhibitor or competing ligand from its target. What is called inhibition is the relative decrease from the control value, in per cent. Lower therefore signals little suppression.

With `CC(C)C[C@H](NC(=O)[C@H](Cc1ccc(OP(=O)(O)O)cc1)NC(=O)CNC(=O)c1ccc2c(c1)C(=O)OC21c2ccc(O)cc2Oc2cc(O)ccc21)C(=O)N[C@H](C(=O)N[C@@H](CC(C)C)C(=O)N[C@@H](CC(=O)O)C(=O)N[C@@H](CCCCN)C(=O)N[C@@H](Cc1c[nH]c2ccccc12)C(=O)O)C(C)C` [5-carboxyfluorescein-GY(PO3H2)LVLDKW], the Kd at STAT5a Trp566Arg amounted to 0.043 µM; on STAT5b Arg566Ala, 0.567 µM; in assay [1] it was 0.246 µM.

Turning to `O=C(O)c1ccccc1OP(=O)(O)O` [fosfosal, O‐phosphorylated salicylic acid], the figures for the IC50 (at STAT5a Trp566Arg (STAT5a Trp566Arg); in assay [1] (STAT5b-7M)) were 21 ± 1.5 µM and 379 ± 7 µM, respectively. Besides, the Ki was 10.2 ± 0.7 µM on STAT5a Trp566Arg (STAT5a Trp566Arg, Ki calculated from IC50, n=4) and 189 ± 3 µM in assay [1] (STAT5b-7M, Ki calculated from IC50). The “increase of activity against STAT5a Trp566Arg compared to wild type STAT5a” value on STAT5a Trp566Arg (ratio of Ki values) turned out to be 14 fold. On STAT5b Arg566Ala (STAT5b Arg566Ala, 600 μM), this compound displayed an inhibition at 600 µM of 22 ± 3%.

(Values after publication PMC7496286, “The Selectivity of Fosfosal for STAT5b over STAT5a is Mediated by Arg566 in the Linker Domain” (Chembiochem, 2020).)
